{
  "source": "paper PMC11013998",
  "about": "“Preparation of Peptoid Antifreeze Agents and Their Structure–Property Relationship” (Polymers, 2024)",
  "tested_on": "Mouse fibroblasts (L929)",
  "experiment": "Cytotoxicity test, Cell Counting Kit-8 (CCK8)",
  "assay_type": "cell-based",
  "details": "L929 cells, 10 mg/mL in culture medium, 24 h, CCK-8, OD at 450 nm; non-cytotoxic if higher than 75%; tested at least three times",
  "experimental": "Cytotoxicity testing is a crucial strategy used to test the safety of biological materials. This experiment employed a low-speed centrifuge (SC-3610, Anhui Zhongke Zhongjia scientific Instrument Co., Ltd., Hefei, China), a cell incubator (CCL-170B-8, ESCO, Kuala Lumpur, Singapore) and a multifunctional microplate detector (Synergy H1, Bio-Tek, Winooski, VT, USA). In this test, the cytotoxicity of peptoid oligomers was detected using Cell Counting Kit-8 (CCK8, Finn Biological Co., Ltd., Wuhan, China). Mouse fibroblasts (L929) were cultured and subcultured to ensure that they met the experimental requirements. The old culture medium was removed from the cell dish, and 1 mL trypsin was added to digest the cells. A total of 2 mL of the new culture medium was added to the cell culture dish, and the cells were centrifuged to the bottom of the centrifuge tube. The culture medium was removed. An appropriate amount of new culture medium was added, and the centrifuge tube was shaken gently to disperse the cells evenly. […] Finally, the Optical Density (OD) at 450 nm was measured using a BioTek multifunctional microplate detector. The relative survival rate (σ) could be calculated using the following formula:(1) σ=OD1−OD0/OD2−OD0×100% where OD1 was the average OD of the experimental group, OD2 was the average OD of the negative control group, and OD0 was the average OD of the blank control group. […]",
  "data": [
    {"smiles": "C[S+](C)[O-]", "note": "[DMSO, dimethyl sulfoxide]", "values": [
      {"measurement": "relative cell viability", "result": 61.9, "unit": "%"}
    ]}
  ]
}
